Assay results published in US10526322B2, “Inhibitors of kidney-type glutaminase, GLS-1” (CORNELL UNIVERSITY, priority 2014, dated 2020).

Legend:
GAC = target: T1, GAC (Mus musculus, UniProt D3Z7P3); assay: Real-time GAC enzyme activity assay coupled to glutamate dehydrogenase (NADH fluorescence); type: biochemical
T1 construct: (residues 72-603) was cloned into a pET23a vector; His-tag with thrombin cleavage site (N, cleaved yes); made in house
T1 sequence (D3Z7P3 72-603 isoform D3Z7P3-2): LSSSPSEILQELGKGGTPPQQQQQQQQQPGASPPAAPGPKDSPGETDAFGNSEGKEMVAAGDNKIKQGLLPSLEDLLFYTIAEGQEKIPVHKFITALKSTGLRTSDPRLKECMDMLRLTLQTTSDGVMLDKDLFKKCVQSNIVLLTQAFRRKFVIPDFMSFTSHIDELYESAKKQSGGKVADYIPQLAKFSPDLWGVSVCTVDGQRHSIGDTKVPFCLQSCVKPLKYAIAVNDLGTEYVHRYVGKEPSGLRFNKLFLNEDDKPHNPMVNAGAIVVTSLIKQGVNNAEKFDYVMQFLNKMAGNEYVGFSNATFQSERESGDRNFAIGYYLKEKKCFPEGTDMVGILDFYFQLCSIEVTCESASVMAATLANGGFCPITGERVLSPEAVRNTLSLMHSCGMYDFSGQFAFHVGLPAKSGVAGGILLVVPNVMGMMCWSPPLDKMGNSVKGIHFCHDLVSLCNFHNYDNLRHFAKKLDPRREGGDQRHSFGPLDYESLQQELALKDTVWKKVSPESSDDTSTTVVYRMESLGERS

[1] = system: glutamine metabolism in Dbl-MEFs; assay: Metabolic tracing, mass isotopologue distribution with [U-13C]glutamine or [U-13C]glucose; type: cell-based, mouse
Procedure: Methods for mass isotopologue distribution analyses using [U-^13C]glutamine or [U-^13C]glucose (Cambridge Isotope Laboratories) were adapted from Cheng et al., “Pyruvate Carboxylase Is Required for Glutamine-Independent Growth of Tumor Cells,” Proc. Natl. Acad. Sci. 108:8674-79 (2011), which is hereby incorporated by reference in its entirety. Briefly, induced (16 hours in complete media without Dox) or non-induced cells (complete media with 1 μg/mL Dox) were plated into 100 mm^2 dishes at a density such that the cells were approximately 60% confluent when adhered, at which point the cells were washed with PBS and grown to 80% confluence in DMEM supplemented with 1% Tet-approved FBS and 8 μM 968/27 for drug treated samples, or 0.8% DMSO for control samples, with or without 1 μg/mL Dox (i.e. overnight). When 80% confluent, cells were then washed with PBS and ^13C-labeling media containing the appropriate drug, DMSO, and Dox concentrations. Media was prepared from glucose- and glutamine-free DMEM powder (Sigma) and supplemented with 1% Tet-approved FBS, 2 mM L[U-^13C]glutamine and 15 mM unlabeled glucose or 15 mM D[U-^13C]glucose and 2 mM unlabeled glutamine (FIGS. 2F-G), together with 1 μg/mL Dox for non-induced samples. For samples containing [U-^13C]glutamine, cells were incubated for 1 hour before extracting metabolites, whereas samples containing [U-^13C]glucose were incubated for 8 hours. Metabolites were extracted by first washing cells twice with ice cold normal saline (0.9% w/v NaCl), followed by addition of 0.5 mL of a 1:1 methanol:water mixture (−20° C.). An internal standard (50 nmol of 2-oxobutyrate) was added and samples were subjected to 3 freeze-thaw cycles, after which macromolecules were separated by centrifugation. The supernatant was evaporated completely and remaining metabolites silylated in 100 μL of a trimethylsilyl donor (Tri-Sil, Thermo) for 30 minutes at 42° C. Metabolites were subjected to GC-MS analysis using an Agilent 6970 gas chromatograph networked to an Agilent 5973 mass selective detector. Metabolites were identified and isotope enrichment calculated as described by Cheng et al., “Pyruvate Carboxylase Is Required for Glutamine-Independent Growth of Tumor Cells,” Proc. Natl. Acad. Sci. 108:8674-79 (2011), which is hereby incorporated by reference in its entirety.

[2] = 8 μM, non-induced and induced cells

potency of inhibition of GAC activity (GAC; GAC concentration decreased from 50 nM to 5 nM): greater potency
inhibition of enzyme activity (GAC; GAC preincubated with inorganic phosphate (50 mM Pi) before 968): much less effective
Structure (SMILES): CN(C)c1ccc(C2Nc3ccc4ccccc4c3C3=C2C(=O)CC(C)(C)C3)cc1Br (stereo not drawn) [Compound 968]
glucose labeling of citrate isotopologues (M+2) ([1]; 8 μM overnight, 8 hour [U-13C]glucose): inhibit
glutamate pool sizes [1, 2]: modest decrease
pool sizes of fumarate, malate, and citrate [1, 2]: no effect
glutamine-derived 13C isotopic enrichment within TCA cycle intermediates ([1]; Dbl-expressing cells, 8 μM overnight, 1 hour [U-13C]glutamine): significant reductions
